Where a name gives a salt, the structure may show the parent alone.
Key:
MATE2-K = MATE2-K (Homo sapiens, UniProt Q86VL8); assay: MATE2-K-mediated uptake in transduced HEK293 cells; assay type: cell-based; design: host or cells: HEK293, baculovirus transduction (CMV promoter), transient; conditions: 100 µM, 5 min
Description: HEK293 cells were modified to transiently express (a combination of) human OCT1, OCT2, MATE1, MATE2-K, or eYFP. Briefly, cDNA of the respective genes was cloned downstream of a CMV promoter into a baculovirus, of which passage three was used to transduce HEK293 cells. These cells were seeded in poly-D-lysine coated 24- or 96-wells plates and grown in a 37 °C incubator at 5% CO2. Growth was initiated at ~ 25% confluency using 375 or 125 μL cell and complete medium (DMEM + GlutaMAX™-I supplemented with 10% fetal bovine serum) suspension per well, respectively. […]
Import and export of PG and cycloguanil (CG) was assessed by single and double transduced HEK293 cells. […] Following the same procedure as for the cellular import assay described above, the import of 100 µM PG and CG was measured after 5 min incubation and data was plotted as mean pmol/mg/min ± SEM. […] Significant reduction in uptake (i.e. export by MATEs) was determined using ln transformation and a one-way repeated measures ANOVA with Dunnet’s post test.
Anti-malarial concentration in the cell lysates was quantified using an LC–MS/MS system consisting of a UPLC, a binary solvent manager, a vacuum degasser and an autosampler, coupled to a Xevo TQ-S micro triple quadrupole mass spectrometer. […] The peak area of the most abundant product ion was used for quantification.

[1] = Maximum plasma concentration from in vivo pharmacokinetic studies after therapeutic dosing; conditions: human, the literature Cmax (ng/mL) of Table 2 expressed in µM
Excerpt: As Cmax the (geometric) mean or median maximum plasma concentrations obtained from previous in vivo pharmacokinetic studies after therapeutic dosing was used.

[2] = cited from earlier work

Chain of MATE2-K (Q86VL8 1-566 isoform Q86VL8-3): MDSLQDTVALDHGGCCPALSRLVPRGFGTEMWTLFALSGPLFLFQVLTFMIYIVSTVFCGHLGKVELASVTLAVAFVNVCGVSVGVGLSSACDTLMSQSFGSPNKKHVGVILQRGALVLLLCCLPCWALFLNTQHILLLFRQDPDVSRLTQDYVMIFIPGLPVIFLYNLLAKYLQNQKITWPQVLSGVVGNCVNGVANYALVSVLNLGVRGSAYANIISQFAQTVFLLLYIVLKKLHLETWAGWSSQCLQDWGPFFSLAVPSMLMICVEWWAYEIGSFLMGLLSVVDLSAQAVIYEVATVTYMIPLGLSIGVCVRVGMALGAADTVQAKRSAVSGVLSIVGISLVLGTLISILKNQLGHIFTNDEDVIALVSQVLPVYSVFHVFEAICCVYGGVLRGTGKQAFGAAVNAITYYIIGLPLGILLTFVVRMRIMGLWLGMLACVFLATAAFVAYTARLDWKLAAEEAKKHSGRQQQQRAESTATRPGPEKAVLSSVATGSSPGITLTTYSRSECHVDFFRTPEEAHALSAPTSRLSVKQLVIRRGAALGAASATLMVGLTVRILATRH

## CC1(C)N=C(N)N=C(N)N1c1ccc(Cl)cc1 [Cycloguanil]
MATE2-K
  Uptake by MATE2-K: 56 ± 15 pmol/mg/min

## [H]/N=C(\N/C(=N/[H])Nc1ccc(Cl)cc1)NC(C)C [Proguanil, proguanil hydrochloride]
MATE2-K
  Uptake by MATE2-K: 360 ± 90 pmol/mg/min
[1]
  Cmax: 1.2 µM
[2]
  Unbound fraction: 0.25 [39]

— paper PMC5654082 (Malaria Journal, 2017)
